Reference: PubChem BioAssay AID328 (DTP/NCI, 2004)
Where “and” joins values, the source holds several entries; their conditions need not be identical. Equal values may be shown once. Toxic doses and inconclusive results are not listed.

System: BDF1 mice, P388 leukemia ip, median survival T/C
Experiment: NCI In Vivo Anticancer Drug Screen. Data for tumor model P388 Leukemia (intraperitoneal) in B6D2F1 (BDF1) mice
Conditions: endpoint: median survival time, higher = longer survival
How it was run: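 Vehicle-dosed animals serve as the reference; survival of compound-dosed, tumour-implanted mice is divided by it.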

[1] = dose: 50.0 mg/kg/injection, schedule: Q01DX009 (ip), vehicle: saline with Tween-80
[2] = dose: 100.0 mg/kg/injection, schedule: Q01DX009 (ip), vehicle: saline with Tween-80
[3] = dose: 200.0 mg/kg/injection, schedule: Q01DX009 (ip), vehicle: saline with Tween-80
[4] = dose: 25.0 mg/kg/injection, schedule: Q01DX009 (ip), vehicle: saline with Tween-80
[5] = dose: 100.0 mg/kg/injection, schedule: Q04DX003 (ip), vehicle: saline with Tween-80

COc1cc([N+](=O)[O-])cc(C=O)c1OC(=O)c1ccccc1
T/C [1]: 109 % of control
T/C [2]: 123 % of control

C=CC[N+](CC=C)(CC=C)CCC[N+](CC=C)(CC=C)CC=C
T/C (dose: 25.0 mg/kg/injection, schedule: Q04DX003 (ip), vehicle: water): 107 % of control
T/C (dose: 50.0 mg/kg/injection, schedule: Q04DX003 (ip), vehicle: water): 88 % of control

CCOC(=O)c1ccc(NS(=O)(=O)c2ccc(C)cc2)cc1
T/C [2]: 106 % of control
T/C [3]: 106 % of control
T/C (dose: 400.0 mg/kg/injection, schedule: Q01DX009 (ip), vehicle: saline with Tween-80): 88 % of control

CC1(C)OC1CC1=CC(=O)C=CC1=O (stereo not given)
T/C [4]: 108 % of control
T/C [1]: 103 % of control
T/C [2]: 100 % of control
T/C [3]: 117 % of control

c1cc2c(c(NC3=NCCCO3)c1)CCCC2
T/C (dose: 12.5 mg/kg/injection, schedule: Q01DX009 (ip), vehicle: saline with Tween-80): 100 % of control
T/C [4]: 110 % of control
T/C [1]: 105 % of control

CCC(CN(C)C)C(=O)c1ccccc1 (stereo not given)
T/C (dose: 25.0 mg/kg/injection, schedule: Q04DX003 (ip), vehicle: saline with Tween-80): 100 % of control
T/C (dose: 50.0 mg/kg/injection, schedule: Q04DX003 (ip), vehicle: saline with Tween-80): 95 % of control
T/C (dose: 100.0 mg/kg/injection, schedule: Q01DX001 (ip), vehicle: saline with Tween-80): 100 % of control
T/C [5]: 91 % of control and 95 % of control
T/C (dose: 200.0 mg/kg/injection, schedule: Q01DX001 (ip), vehicle: saline with Tween-80): 100 % of control

CCOS(=O)(=O)c1ccc([N+](=O)[O-])cc1[N+](=O)[O-]
T/C (dose: 50.0 mg/kg/injection, schedule: Q01DX001 (ip), vehicle: saline): 95 % of control
T/C (dose: 100.0 mg/kg/injection, schedule: Q01DX001 (ip), vehicle: saline): 104 % of control
T/C (dose: 200.0 mg/kg/injection, schedule: Q01DX001 (ip), vehicle: saline): 118 % of control

CN(N=O)C(=O)N[C@@H](C=O)[C@@H](O)[C@H](O)[C@H](O)CO
T/C (dose: 17.0 mg/kg/injection, schedule: Q01DX009 (ip), vehicle: water): 118 % of control
T/C (dose: 39.0 mg/kg/injection, schedule: Q01DX009 (ip), vehicle: water): 161 % of control
T/C (dose: 40.0 mg/kg/injection, schedule: Q01DX010 (ip), vehicle: other): 154 % of control
T/C (dose: 50.0 mg/kg/injection, schedule: Q01DX009 (ip), vehicle: other): 171 % of control
T/C (dose: 58.0 mg/kg/injection, schedule: Q01DX009 (ip), vehicle: water): 157 % of control and 181 % of control
T/C (dose: 80.0 mg/kg/injection, schedule: Q01DX010 (ip), vehicle: other): 118 % of control
T/C (dose: 87.0 mg/kg/injection, schedule: Q01DX009 (ip), vehicle: water): 154 % of control and 170 % of control
T/C (dose: 100.0 mg/kg/injection, schedule: Q04DX002 (ip), vehicle: saline): 109 % of control
T/C (dose: 130.0 mg/kg/injection, schedule: Q01DX009 (ip), vehicle: water): 89 % of control
T/C (dose: 200.0 mg/kg/injection, schedule: Q04DX002 (ip), vehicle: saline): 100 % of control
T/C (dose: 400.0 mg/kg/injection, schedule: Q04DX002 (ip), vehicle: saline): 109 % of control

CCCCc1c(C)[nH]c(=S)[nH]c1=O
T/C [5]: 95 % of control
T/C (dose: 200.0 mg/kg/injection, schedule: Q04DX003 (ip), vehicle: saline with Tween-80): 109 % of control
T/C (dose: 400.0 mg/kg/injection, schedule: Q04DX003 (ip), vehicle: saline with Tween-80): 95 % of control

COc1c(I)cc(/C=C(\C)[N+](=O)[O-])cc1I
T/C [1]: 110 % of control
T/C [2]: 112 % of control

C#CCOCC1CN(c2ccccc2)C(=O)O1 (stereo not given)
T/C (dose: 100.0 mg/kg/injection, schedule: Q04DX003 (ip), vehicle: Klucel (hydroxypropylcellulose) (HPC)): 95 % of control
T/C (dose: 200.0 mg/kg/injection, schedule: Q04DX003 (ip), vehicle: Klucel (hydroxypropylcellulose) (HPC)): 100 % of control
T/C (dose: 400.0 mg/kg/injection, schedule: Q04DX003 (ip), vehicle: Klucel (hydroxypropylcellulose) (HPC)): 100 % of control

O=C(NC(CO)Cc1ccccc1)c1ccccc1 (stereo not given)
T/C (dose: 9.0 mg/kg/injection, schedule: Q01DX009 (ip), vehicle: Klucel (hydroxypropylcellulose) (HPC)): 102 % of control
T/C (dose: 18.0 mg/kg/injection, schedule: Q01DX009 (ip), vehicle: Klucel (hydroxypropylcellulose) (HPC)): 95 % of control
T/C (dose: 36.0 mg/kg/injection, schedule: Q01DX009 (ip), vehicle: Klucel (hydroxypropylcellulose) (HPC)): 99 % of control
T/C (dose: 72.0 mg/kg/injection, schedule: Q01DX009 (ip), vehicle: Klucel (hydroxypropylcellulose) (HPC)): 99 % of control
